# According to patent US9399626B2, “2-thiopyrimidinones” (Pfizer Inc., priority 2011, dated 2016):
# Counter-ions that a name gives are not always drawn.
# Target: T1, MPO (purified from human polynuclear leukocytes) (Homo sapiens, UniProt P05164)
# T1 construct: purified from human polynuclear leukocytes; purchased Calbiochem/EMD Biosciences; host or cells: human polynuclear leukocytes (natural source)
# Test: MPO Amplex Red Activity Assay
# Assay type: biochemical
# Conditions: Table 1, 2 μM H2O2, pH 7.4
# Summary of the method: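 Potency is given as kinact/KI: kobs values from 600 s progress curves, minus the uninhibited rate, are fit against inhibitor concentration. Reactions use 2 μM H2O2, 30 μM Amplex Red, pH 7.4 phosphate buffer with NaCl, DTPA and 2% DMSO, started with […] human MPO. Readout is resorufin fluorescence, catalase background subtracted.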
# T1 sequence (P05164 279-745 limits assumed): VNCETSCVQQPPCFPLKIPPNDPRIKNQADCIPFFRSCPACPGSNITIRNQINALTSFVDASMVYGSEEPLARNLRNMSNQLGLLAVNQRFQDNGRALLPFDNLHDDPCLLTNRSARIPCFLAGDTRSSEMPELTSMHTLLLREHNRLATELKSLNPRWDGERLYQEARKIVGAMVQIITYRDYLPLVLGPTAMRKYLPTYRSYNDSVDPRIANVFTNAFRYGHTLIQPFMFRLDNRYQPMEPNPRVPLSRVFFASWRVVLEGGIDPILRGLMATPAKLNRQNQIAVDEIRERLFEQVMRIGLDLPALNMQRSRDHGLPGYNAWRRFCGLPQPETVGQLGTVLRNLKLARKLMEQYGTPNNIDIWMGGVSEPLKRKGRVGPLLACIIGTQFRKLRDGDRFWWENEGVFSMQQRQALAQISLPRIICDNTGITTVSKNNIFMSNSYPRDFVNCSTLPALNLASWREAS
# T1 sequence (P05164 165-273 limits assumed): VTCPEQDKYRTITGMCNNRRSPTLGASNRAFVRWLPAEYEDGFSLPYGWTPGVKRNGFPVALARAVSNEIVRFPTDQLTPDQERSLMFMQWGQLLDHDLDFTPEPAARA
row,MPO kinact/Ki,Compound
1,6710 1/s per M,"COCCn1c(-c2ccc3ccccc3c2)cc(=O)[nH]c1=S [Example 276, 1-(2-methoxyethyl)-6-(2-naphthyl)-2-thioxo-2,3-dihydropyrimidin-4(1H)-one]"
2,1560 1/s per M,"COCCn1c(-c2ccn[nH]2)cc(=O)[nH]c1=S [Example 278, 1-(2-methoxyethyl)-6-(1H-pyrazol-5-yl)-2-thioxo-2,3-dihydropyrimidin-4(1H)-one]"
3,386 1/s per M,"COCCn1c(-c2cccnc2)cc(=O)[nH]c1=S [Example 279, 1-(2-methoxyethyl)-6-pyridin-3-yl-2-thioxo-2,3-dihydropyrimidin-4(1H)-one]"
4,1060 1/s per M,"COCCn1c(-c2cccn2C)cc(=O)[nH]c1=S [Example 281, 1-(2-methoxyethyl)-6-(1-methyl-1H-pyrrol-2-yl)-2-thioxo-2,3-dihydropyrimidin-4(1H)-one]"
5,2790 1/s per M,"COCCn1c(-c2cccc(C)c2)cc(=O)[nH]c1=S [Example 283, 1-(2-methoxyethyl)-6-(3-methylphenyl)-2-thioxo-2,3-dihydropyrimidin-4(1H)-one]"
6,1470 1/s per M,"COCCn1c(-c2ccccc2C)cc(=O)[nH]c1=S [Example 284, 1-(2-methoxyethyl)-6-(2-methylphenyl)-2-thioxo-2,3-dihydropyrimidin-4(1H)-one]"
7,1750 1/s per M,"COCCn1c(-c2ccc(C)cc2)cc(=O)[nH]c1=S [Example 285, 1-(2-methoxyethyl)-6-(4-methylphenyl)-2-thioxo-2,3-dihydropyrimidin-4(1H)-one]"
8,1500 1/s per M,"COCCn1c(-c2ccc(O)cc2)cc(=O)[nH]c1=S [Example 286, 6-(4-hydroxyphenyl)-1-(2-methoxyethyl)-2-thioxo-2,3-dihydropyrimdin-4(1H)-one]"
9,2130 1/s per M,COCCn1c(-c2cccc(O)c2)cc(=O)[nH]c1=S [Example 287]
10,4230 1/s per M,"COCCn1c(-c2ccccc2O)cc(=O)[nH]c1=S [Example 288, 6-(2-hydroxyphenyl)-1-(2-methoxyethyl)-2-thioxo-2,3-dihydropyrimidin-4(1H)-one]"
11,1580 1/s per M,"COCCn1c(-c2cccc(F)c2)cc(=O)[nH]c1=S [Example 289, 6-(3-fluorophenyl)-1-(2-methoxyethyl)-2-thioxo-2,3-dihydropyrimidin-4(1H)-one]"
12,1890 1/s per M,"COCCn1c(-c2ccc(F)cc2)cc(=O)[nH]c1=S [Example 290, 6-(4-fluorophenyl)-1-(2-methoxyethyl)-2-thioxo-2,3-dihydropyrimidin-4(1H)-one]"
13,2450 1/s per M,"COCCn1c(-c2cccc(C#N)c2)cc(=O)[nH]c1=S [Example 291, 3-[3-(2-methoxyethyl)-6-oxo-2-thioxo-1,2,3,6-tetrahydropyrimidin-4-yl]benzonitrile]"
14,1810 1/s per M,"COCCn1c(-c2cccc(OC)c2)cc(=O)[nH]c1=S [Example 293, 1-(2-methoxyethyl)-6-(3-methoxyphenyl)-2-thioxo-2,3-dihydropyrimidin-4(1H)-one]"
15,1910 1/s per M,"COCCn1c(-c2ccc(OC)cc2)cc(=O)[nH]c1=S [Example 294, 1-(2-methoxyethyl)-6-(4-methoxyphenyl)-2-thioxo-2,3-dihydropyrimidin-4(1H)-one]"
16,793 1/s per M,"COCCn1c(-c2ccc(OC)nc2)cc(=O)[nH]c1=S [Example 295, 1-(2-methoxyethyl)-6-(6-methoxypyridin-3-yl)-2-thioxo-2,3-dihydropyrimidin-4(1H)-one]"
17,762 1/s per M,"COCCn1c(-c2ccnc(OC)c2)cc(=O)[nH]c1=S [Example 297, 1-(2-methoxyethyl)-6-(2-methoxypyridin-4-yl)-2-thioxo-2,3-dihydropyrimidin-4(1H)-one]"
18,1080 1/s per M,"COCCn1c(-c2ccc(Cl)cc2)cc(=O)[nH]c1=S [Example 298, 6-(4-chlorophenyl)-1-(2-methoxyethyl)-2-thioxo-2,3-dihydropyrimidin-4(1H)-one]"
19,2060 1/s per M,"COCCn1c(-c2ccccc2Cl)cc(=O)[nH]c1=S [Example 299, 6-(2-chlorophenyl)-1-(2-methoxyethyl)-2-thioxo-2,3-dihydropyrimidin-4(1H)-one]"
20,2460 1/s per M,"COCCn1c(-c2cccc(Cl)c2)cc(=O)[nH]c1=S [Example 300, 6-(3-chlorophenyl)-1-(2-methoxyethyl)-2-thioxo-2,3-dihydropyrimidin-4(1H)-one]"
21,3330 1/s per M,"COCCn1c(-c2ccc3cc[nH]c3c2)cc(=O)[nH]c1=S [Example 301, 6-(1H-indol-6-yl)-1-(2-methoxyethyl)-2-thioxo-2,3-dihydropyrimidin-4(1H)-one]"
22,5270 1/s per M,"COCCn1c(-c2ccc3[nH]ccc3c2)cc(=O)[nH]c1=S [Example 303, 6-(1H-indol-5-yl)-1-(2-methoxyethyl)-2-thioxo-2,3-dihydropyrimidin-4(1H)-one]"
23,6290 1/s per M,"COCCn1c(-c2cccc3[nH]ccc23)cc(=O)[nH]c1=S [Example 304, 6-(1H-indol-4-yl)-1-(2-methoxyethyl)-2-thioxo-2,3-dihydropyrimidin-4(1H)-one]"

# The remaining lines, values behind:
row,Compound,MPO kinact/Ki
1,"COc1ccc(-c2cc(=O)[nH]c(=S)n2C[C@H]2CCCN2)c(OC)c1 [Example 267, 6-(2,4-dimethoxyphenyl)-1-[(2R)-pyrrolidin-2-ylmethyl]-2-thioxo-2,3-dihydropyrimidin-4(1H)-one hydrochloride]",3840 1/s per M
2,"COc1ccc(-c2cc(=O)[nH]c(=S)n2C[C@@H]2CCCN2)c(OC)c1 [Example 268, 6-(2,4-dimethoxyphenyl)-1-[(2S)-pyrrolidin-2-ylmethyl]-2-thioxo-2,3-dihydropyrimidin-4(1H)-one hydrochloride hydrochloride hydrochloride, hydrochloride hydrochloride …]",6640 1/s per M
3,"COc1ccc(-c2cc(=O)[nH]c(=S)n2CCOCCN)c(OC)c1 [Example 269, 1-[2-(2-aminoethoxy)ethyl]-6-(2,4-dimethoxyphenyl)-2-thioxo-2,3-dihydropyrimidin-4(1H)-one hydrochloride]",9510 1/s per M
4,"COc1ccc(-c2cc(=O)[nH]c(=S)n2CCCN=C(N)N)c(OC)c1 [Example 270, 2-{3-[6-(2,4-dimethoxyphenyl)-4-oxo-2-thioxo-3,4-dihydropyrimidin-1(2H)-yl]propyl}guanidine trifluoroacetate]",20500 1/s per M
5,"COCCc1ccccc1-c1cc(=O)[nH]c(=S)n1CCO [Example 271, 1-(2-hydroxyethyl)-6-[2-(2-methoxyethyl)phenyl]-2-thioxo-2,3-dihydropyrimidin-4(1H)-one]",2010 1/s per M
6,"NCCn1c(-c2ccccc2OCC(N)=O)cc(=O)[nH]c1=S [Example 272, 2-{2-[3-(2-aminoethyl)-6-oxo-2-thioxo-1,2,3,6-tetrahydropyrimidin-4-yl]phenoxy}acetamide trifluoroacetate]",3160 1/s per M
7,"COc1cc(-c2cc(=O)[nH]c(=S)n2CCO)c(OC)cc1C [Example 273, 6-(2,5-dimethoxy-4-methylphenyl)-1-(2-hydroxyethyl)-2-thioxo-2,3-dihydropyrimidin-4(1H)-one]",8180 1/s per M
8,"COc1ccc(-c2cc(=O)[nH]c(=S)n2CCO)c2ccccc12 [Example 274, 1-(2-hydroxyethyl)-6-(4-methoxy-1-naphthyl)-2-thioxo-2,3-dihydropyrimidin-4(1H)-one]",22800 1/s per M
9,"COCCn1c(-c2cc(OC)c(C)cc2OC)cc(=O)[nH]c1=S [Example 275, 6-(2,5-dimethoxy-4-methylphenyl)-1-(2-methoxyethyl)-2-thioxo-2,3-dihydropyrimidin-4(1H)-one]",4730 1/s per M
10,"COCCn1c(-c2ccco2)cc(=O)[nH]c1=S [Example 277, 6-(2-furyl)-1-(2-methoxyethyl)-2-thioxo-2,3-dihydropyrimidin-4(1H)-one]",767 1/s per M
11,"COCCn1c(-c2cncnc2)cc(=O)[nH]c1=S [Example 280, 3-(2-methoxyethyl)-2-thioxo-2,3-dihydro-4,5′-bipyrimidin-6(1H)-one]",430 1/s per M
12,"COCCn1c(-c2cccs2)cc(=O)[nH]c1=S [Example 282, 1-(2-methoxyethyl)-6-(2-thienyl)-2-thioxo-2,3-dihydropyrimidin-4(1H)-one]",1180 1/s per M
13,"COCCn1c(-c2ccccc2CO)cc(=O)[nH]c1=S [Example 292, 6-[2-(hydroxymethyl)phenyl]-1-(2-methoxyethyl)-2-thioxo-2,3-dihydropyrimidin-4(1H)-one]",1070 1/s per M
14,"COCCn1c(-c2ccncc2OC)cc(=O)[nH]c1=S [Example 296, 1-(2-methoxyethyl)-6-(3-methoxypyridin-4-yl)-2-thioxo-2,3-dihydropyrimidin-4(1H)-one]",1570 1/s per M
15,"COCCn1c(-c2cc3ccccc3[nH]2)cc(=O)[nH]c1=S [Example 302, 6-(1H-indol-2-yl)-1-(2-methoxyethyl) 2-thioxo-2,3-dihydropyrimidin-4(1H)-one]",3630 1/s per M
16,"COCCn1c(-c2coc3ccccc23)cc(=O)[nH]c1=S [Example 305, 6-(1-benzofuran-3-yl)-1-(2-methoxyethyl)-2-thioxo-2,3-dihydropyrimidin-4(1H)-one]",6370 1/s per M
17,"COCCn1c(-c2cc3ccccc3o2)cc(=O)[nH]c1=S [Example 306, 6-(1-benzofuran-2-yl)-1-(2-methoxyethyl)-2-thioxo-2,3-dihydropyrimidin-4(1H)-one]",6740 1/s per M
18,"COCCn1c(-c2cccc3ccoc23)cc(=O)[nH]c1=S [Example 307, 6-(1-benzofuran-7-yl)-1-(2-methoxyethyl)-2-thioxo-2,3-dihydropyrimidin-4(1H)-one]",14400 1/s per M
